Assay results taken from patent US10231954B2, “Neurodegenerative therapies” (LYTIX BIOPHARMA AS, priority 2014, dated 2019).
Read-outs that look alike come from different tables or passages of the source.

Assays:
[1] = tested on: AMPK (hum); assay: Kinase profiling AMPK (hum); assay type: biochemical, human
From the text: (§1) Any value less that 25 is considered to be highly significant inhibition.

[2] = target: TrkA (Homo sapiens, UniProt P04629); assay: Kinase profiling TrkA; assay type: biochemical; conditions: for remaining activity at 100 µM: read-out: residual kinase activity, TrkA
From the text: as §1

[3] = target: JAK2 (Homo sapiens, UniProt O60674); assay: Kinase profiling JAK2; assay type: biochemical; conditions: for remaining activity at 100 µM: read-out: residual kinase activity, JAK2
From the text: as §1

[4] = target: Src (Homo sapiens, UniProt P12931); assay: Kinase profiling Src; assay type: biochemical; conditions: for remaining activity at 100 µM: read-out: residual kinase activity, Src
From the text: as §1

[5] = target: HIPK2 (Homo sapiens, UniProt Q9H2X6); assay: Kinase profiling HIPK2; assay type: biochemical; conditions: for remaining activity at 100 µM: read-out: residual kinase activity, HIPK2
From the text: as §1

[6] = target: CAMK1 (Homo sapiens, UniProt Q14012); assay: Kinase profiling CAMK1; assay type: biochemical; conditions: for remaining activity at 100 µM: read-out: residual kinase activity, CAMK1
From the text: as §1

[7] = target: T1, PDK1 (Homo sapiens, UniProt O15530); assay: Kinase profiling PDK1; assay type: biochemical; conditions: for remaining activity at 100 µM: read-out: residual kinase activity, PDK1
T1 sequence (O15530 1-556): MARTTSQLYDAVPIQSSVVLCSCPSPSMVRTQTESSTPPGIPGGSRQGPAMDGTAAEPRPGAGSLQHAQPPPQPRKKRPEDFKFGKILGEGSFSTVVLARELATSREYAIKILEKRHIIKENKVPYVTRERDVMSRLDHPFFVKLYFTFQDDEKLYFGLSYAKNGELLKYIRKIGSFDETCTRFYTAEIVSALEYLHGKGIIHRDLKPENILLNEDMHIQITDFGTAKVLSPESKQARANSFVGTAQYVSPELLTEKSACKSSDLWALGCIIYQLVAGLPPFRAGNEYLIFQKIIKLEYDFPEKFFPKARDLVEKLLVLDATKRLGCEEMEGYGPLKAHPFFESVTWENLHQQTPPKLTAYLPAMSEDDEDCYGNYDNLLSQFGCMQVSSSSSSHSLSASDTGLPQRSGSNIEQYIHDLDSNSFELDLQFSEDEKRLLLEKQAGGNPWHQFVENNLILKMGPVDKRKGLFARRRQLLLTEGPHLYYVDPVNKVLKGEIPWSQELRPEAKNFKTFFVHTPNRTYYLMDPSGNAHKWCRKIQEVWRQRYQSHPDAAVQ
From the text: as §1

[8] = target: JNK2 (Homo sapiens, UniProt P45984); assay: Kinase profiling JNK2; assay type: biochemical; conditions: for remaining activity at 100 µM: read-out: residual kinase activity, JNK2
From the text: as §1

[9] = target: T2, LKB1 (Homo sapiens, UniProt Q15831); assay: Kinase profiling LKB1; assay type: biochemical; conditions: for remaining activity at 100 µM: read-out: residual kinase activity, LKB1
T2 sequence (Q15831 1-433): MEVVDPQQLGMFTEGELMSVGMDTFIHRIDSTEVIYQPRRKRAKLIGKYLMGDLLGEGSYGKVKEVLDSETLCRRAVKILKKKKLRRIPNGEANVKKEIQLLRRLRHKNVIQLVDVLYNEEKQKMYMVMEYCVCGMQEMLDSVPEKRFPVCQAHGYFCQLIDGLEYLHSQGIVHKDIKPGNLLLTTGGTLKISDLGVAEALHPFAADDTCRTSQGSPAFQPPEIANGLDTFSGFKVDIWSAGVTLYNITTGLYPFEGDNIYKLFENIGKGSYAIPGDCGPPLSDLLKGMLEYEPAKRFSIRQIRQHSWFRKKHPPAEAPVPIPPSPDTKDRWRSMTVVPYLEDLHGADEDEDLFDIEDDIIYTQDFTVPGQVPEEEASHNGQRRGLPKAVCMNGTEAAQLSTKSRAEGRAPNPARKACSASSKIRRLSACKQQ
T2 sequence (Q7RTN6 1-431 partner): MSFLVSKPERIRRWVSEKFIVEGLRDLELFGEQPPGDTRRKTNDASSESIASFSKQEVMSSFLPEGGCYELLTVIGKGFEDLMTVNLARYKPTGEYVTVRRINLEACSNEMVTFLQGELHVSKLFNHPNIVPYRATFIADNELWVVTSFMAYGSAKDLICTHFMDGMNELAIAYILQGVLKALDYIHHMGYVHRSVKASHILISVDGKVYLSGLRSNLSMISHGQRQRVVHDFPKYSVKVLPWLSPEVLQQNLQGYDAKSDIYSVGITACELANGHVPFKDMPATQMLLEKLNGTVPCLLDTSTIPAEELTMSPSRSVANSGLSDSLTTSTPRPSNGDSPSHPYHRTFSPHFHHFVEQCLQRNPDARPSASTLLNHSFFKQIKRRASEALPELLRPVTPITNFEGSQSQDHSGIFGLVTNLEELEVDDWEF
T2 sequence (Q9Y376 1-341 partner): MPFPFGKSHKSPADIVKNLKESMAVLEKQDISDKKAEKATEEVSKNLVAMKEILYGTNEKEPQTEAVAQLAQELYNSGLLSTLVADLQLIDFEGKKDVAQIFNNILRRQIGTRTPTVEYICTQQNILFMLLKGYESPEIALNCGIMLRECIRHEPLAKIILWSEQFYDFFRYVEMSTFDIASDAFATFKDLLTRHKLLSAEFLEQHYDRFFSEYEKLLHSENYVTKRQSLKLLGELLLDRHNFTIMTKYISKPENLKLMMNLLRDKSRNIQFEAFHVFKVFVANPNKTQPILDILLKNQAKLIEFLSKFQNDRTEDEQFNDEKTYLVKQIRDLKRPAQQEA
From the text: as §1

[10] = target: ERK1 (Homo sapiens, UniProt P27361); assay: Kinase profiling ERK1; assay type: biochemical; conditions: for remaining activity at 100 µM: read-out: residual kinase activity, ERK1
From the text: as §1

[11] = target: STK33 (Homo sapiens, UniProt Q9BYT3); assay: Kinase profiling STK33; assay type: biochemical; conditions: for remaining activity at 100 µM: read-out: residual kinase activity, STK33
From the text: as §1

[12] = target: S6K1 (Homo sapiens, UniProt P23443); assay: Kinase profiling S6K1; assay type: biochemical; conditions: for remaining activity at 100 µM: read-out: residual kinase activity, S6K1
From the text: as §1

[13] = target: JNK3 (Homo sapiens, UniProt P53779); assay: Kinase profiling JNK3; assay type: biochemical; conditions: for remaining activity at 100 µM: read-out: residual kinase activity, JNK3
From the text: as §1

[14] = target: JNK1 (Homo sapiens, UniProt P45983); assay: Kinase profiling JNK1; assay type: biochemical; conditions: for remaining activity at 100 µM: read-out: residual kinase activity, JNK1
From the text: as §1

[15] = 100 micromolar inhibitor, 100 = no change
[16] = 100 micromolar inhibitor concentration, 100 is no change

Sequence of CAMK1 (Q14012 whole entry, species assumed): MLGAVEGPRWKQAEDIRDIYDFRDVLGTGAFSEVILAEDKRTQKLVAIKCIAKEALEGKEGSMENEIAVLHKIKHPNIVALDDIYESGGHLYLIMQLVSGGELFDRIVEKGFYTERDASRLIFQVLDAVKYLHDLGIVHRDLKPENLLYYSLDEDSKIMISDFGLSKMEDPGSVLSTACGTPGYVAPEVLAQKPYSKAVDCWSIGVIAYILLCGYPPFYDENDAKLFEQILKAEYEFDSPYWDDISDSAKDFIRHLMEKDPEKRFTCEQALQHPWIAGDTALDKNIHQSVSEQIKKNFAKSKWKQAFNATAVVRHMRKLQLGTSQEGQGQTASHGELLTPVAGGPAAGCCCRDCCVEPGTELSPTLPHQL
Sequence of JNK1 (P45983 whole entry, species assumed): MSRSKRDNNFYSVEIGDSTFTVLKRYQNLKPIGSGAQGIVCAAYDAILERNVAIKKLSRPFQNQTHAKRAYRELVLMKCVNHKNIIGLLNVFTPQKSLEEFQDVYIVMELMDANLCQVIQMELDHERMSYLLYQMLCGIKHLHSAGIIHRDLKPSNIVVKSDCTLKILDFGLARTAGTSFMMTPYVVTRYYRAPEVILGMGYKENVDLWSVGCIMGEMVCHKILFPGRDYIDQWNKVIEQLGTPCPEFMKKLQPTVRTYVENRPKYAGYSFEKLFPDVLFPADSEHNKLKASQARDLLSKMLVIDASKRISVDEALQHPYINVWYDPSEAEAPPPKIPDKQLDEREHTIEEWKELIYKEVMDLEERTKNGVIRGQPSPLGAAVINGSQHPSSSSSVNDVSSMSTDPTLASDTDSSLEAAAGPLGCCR
Sequence of JAK2 (O60674 whole entry, species assumed): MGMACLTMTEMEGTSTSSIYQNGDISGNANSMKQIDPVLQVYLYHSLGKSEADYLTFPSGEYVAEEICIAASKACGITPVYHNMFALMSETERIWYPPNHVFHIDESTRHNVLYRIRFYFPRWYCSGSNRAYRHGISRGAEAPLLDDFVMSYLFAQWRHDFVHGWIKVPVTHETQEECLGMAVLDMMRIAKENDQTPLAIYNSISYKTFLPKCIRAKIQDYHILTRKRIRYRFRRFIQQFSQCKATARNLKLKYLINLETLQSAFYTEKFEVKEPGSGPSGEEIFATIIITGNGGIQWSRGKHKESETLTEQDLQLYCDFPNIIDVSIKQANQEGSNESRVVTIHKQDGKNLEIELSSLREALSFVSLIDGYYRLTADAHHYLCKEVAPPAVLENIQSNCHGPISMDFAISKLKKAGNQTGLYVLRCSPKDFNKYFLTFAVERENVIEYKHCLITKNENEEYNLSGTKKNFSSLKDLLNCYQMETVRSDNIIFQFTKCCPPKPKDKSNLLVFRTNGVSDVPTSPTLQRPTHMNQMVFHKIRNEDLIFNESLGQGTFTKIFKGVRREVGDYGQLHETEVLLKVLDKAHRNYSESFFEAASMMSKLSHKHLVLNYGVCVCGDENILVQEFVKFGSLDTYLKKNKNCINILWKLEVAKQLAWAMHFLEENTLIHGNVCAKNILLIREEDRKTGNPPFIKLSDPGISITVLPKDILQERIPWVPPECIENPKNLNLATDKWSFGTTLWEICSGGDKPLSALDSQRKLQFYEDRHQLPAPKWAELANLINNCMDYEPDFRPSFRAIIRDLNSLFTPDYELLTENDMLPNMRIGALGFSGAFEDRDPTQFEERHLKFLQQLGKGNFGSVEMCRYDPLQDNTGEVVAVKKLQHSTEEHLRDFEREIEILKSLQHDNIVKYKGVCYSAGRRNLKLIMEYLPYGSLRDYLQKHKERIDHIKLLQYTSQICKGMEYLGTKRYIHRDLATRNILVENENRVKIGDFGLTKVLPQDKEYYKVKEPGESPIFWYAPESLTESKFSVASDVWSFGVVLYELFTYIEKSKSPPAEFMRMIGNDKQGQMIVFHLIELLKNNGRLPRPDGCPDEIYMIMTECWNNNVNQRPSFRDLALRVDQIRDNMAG
Sequence of JNK3 (P53779 whole entry, species assumed): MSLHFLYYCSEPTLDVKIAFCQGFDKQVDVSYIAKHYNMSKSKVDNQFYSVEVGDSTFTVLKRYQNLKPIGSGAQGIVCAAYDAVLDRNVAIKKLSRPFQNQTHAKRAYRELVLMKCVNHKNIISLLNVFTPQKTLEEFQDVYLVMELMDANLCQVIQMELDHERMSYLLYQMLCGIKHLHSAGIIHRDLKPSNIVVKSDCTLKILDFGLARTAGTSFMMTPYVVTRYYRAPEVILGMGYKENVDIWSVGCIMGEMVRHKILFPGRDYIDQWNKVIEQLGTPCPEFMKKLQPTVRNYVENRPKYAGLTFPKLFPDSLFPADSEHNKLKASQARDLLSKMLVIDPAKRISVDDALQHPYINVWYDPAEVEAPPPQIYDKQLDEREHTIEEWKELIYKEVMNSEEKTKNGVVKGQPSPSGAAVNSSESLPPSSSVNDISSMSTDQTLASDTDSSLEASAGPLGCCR
Sequence of S6K1 (P23443 whole entry, species assumed): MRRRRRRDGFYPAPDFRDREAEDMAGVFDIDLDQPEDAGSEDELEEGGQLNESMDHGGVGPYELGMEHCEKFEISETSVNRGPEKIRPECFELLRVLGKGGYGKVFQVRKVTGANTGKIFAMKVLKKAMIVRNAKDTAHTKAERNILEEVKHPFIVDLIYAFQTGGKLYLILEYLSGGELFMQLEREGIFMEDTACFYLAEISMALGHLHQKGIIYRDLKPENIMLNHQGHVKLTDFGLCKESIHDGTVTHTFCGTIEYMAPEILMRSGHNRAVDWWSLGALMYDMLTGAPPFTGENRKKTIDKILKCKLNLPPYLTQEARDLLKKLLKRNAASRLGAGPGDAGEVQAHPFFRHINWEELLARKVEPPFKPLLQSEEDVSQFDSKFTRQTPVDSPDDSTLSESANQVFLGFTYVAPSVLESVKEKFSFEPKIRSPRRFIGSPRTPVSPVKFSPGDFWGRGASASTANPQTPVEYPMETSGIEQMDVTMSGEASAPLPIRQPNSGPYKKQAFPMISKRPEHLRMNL
Sequence of TrkA (P04629 33-796, species assumed): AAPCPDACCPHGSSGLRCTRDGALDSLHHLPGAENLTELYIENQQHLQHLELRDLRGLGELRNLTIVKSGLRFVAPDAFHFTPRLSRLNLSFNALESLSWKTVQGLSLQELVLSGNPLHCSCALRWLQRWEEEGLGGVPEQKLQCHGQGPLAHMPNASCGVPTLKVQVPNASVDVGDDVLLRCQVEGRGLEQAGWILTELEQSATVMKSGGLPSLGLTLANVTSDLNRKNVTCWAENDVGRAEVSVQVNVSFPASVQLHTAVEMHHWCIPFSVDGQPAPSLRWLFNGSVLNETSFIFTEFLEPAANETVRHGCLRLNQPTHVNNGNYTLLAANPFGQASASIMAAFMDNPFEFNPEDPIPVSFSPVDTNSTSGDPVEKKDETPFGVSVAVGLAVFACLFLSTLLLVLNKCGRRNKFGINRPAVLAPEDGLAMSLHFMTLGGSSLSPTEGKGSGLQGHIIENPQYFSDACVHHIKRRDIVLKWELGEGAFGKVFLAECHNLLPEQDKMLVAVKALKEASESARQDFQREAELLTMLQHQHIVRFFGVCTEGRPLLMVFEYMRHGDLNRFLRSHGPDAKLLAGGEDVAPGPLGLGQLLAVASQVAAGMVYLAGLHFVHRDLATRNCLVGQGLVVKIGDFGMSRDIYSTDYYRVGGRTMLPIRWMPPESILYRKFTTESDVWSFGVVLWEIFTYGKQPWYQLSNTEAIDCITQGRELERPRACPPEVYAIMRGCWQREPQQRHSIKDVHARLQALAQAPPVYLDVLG
Sequence of ERK1 (P27361 whole entry, species assumed): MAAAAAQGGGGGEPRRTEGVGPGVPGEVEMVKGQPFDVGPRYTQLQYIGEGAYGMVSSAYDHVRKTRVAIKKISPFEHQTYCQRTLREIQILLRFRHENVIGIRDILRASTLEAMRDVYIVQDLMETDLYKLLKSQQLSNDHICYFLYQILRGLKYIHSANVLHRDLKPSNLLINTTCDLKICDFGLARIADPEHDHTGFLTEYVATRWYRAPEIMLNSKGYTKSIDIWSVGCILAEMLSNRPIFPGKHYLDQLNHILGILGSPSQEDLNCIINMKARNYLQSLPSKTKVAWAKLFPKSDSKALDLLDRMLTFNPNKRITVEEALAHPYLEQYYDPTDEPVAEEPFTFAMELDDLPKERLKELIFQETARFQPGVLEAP
Sequence of Src (P12931 whole entry, species assumed): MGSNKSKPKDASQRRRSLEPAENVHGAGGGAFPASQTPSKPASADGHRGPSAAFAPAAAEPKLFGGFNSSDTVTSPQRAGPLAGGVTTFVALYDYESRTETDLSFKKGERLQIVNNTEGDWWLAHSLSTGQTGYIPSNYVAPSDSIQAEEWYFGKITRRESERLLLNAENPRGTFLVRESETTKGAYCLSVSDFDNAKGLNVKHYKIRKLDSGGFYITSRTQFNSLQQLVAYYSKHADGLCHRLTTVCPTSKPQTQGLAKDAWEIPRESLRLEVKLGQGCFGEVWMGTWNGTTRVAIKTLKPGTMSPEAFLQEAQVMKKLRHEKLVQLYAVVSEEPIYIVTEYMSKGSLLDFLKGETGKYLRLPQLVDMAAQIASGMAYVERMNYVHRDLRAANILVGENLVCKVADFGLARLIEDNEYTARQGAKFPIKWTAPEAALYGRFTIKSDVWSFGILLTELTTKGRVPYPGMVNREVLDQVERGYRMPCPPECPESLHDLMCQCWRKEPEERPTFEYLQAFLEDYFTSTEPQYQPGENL
Sequence of JNK2 (P45984 whole entry, species assumed): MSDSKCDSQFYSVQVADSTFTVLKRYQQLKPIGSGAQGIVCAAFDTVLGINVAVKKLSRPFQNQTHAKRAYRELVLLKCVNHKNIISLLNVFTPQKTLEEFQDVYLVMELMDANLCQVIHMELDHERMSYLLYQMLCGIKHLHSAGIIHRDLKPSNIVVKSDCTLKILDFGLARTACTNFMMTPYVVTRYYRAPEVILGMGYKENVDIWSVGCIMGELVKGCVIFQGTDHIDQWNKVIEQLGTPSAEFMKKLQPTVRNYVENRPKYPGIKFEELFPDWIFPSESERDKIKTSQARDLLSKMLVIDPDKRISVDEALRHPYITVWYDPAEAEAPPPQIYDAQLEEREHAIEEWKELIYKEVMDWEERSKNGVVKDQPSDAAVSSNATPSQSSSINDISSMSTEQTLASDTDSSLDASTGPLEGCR

CC(=O)Nc1cccc(NC(=O)c2nc3ccc(O)cc3s2)c1 [Compound 03-07, N-(3-acetamidophenyl)-6-hydroxybenzo[d]thiazole-2-carboxamide]
residual kinase activity, AMPK (hum) [1, 15]: 34
remaining activity at 100 µM [2, 15]: 59%
remaining activity at 100 µM [3, 15]: 56%
remaining activity at 100 µM [4, 15]: 101%
remaining activity at 100 µM [5, 15]: 46%
remaining activity at 100 µM [6, 15]: 44%
remaining activity at 100 µM [7, 15]: 72%
remaining activity at 100 µM [8, 15]: 104%
remaining activity at 100 µM [9, 15]: 83%
remaining activity at 100 µM [10, 15]: 102%
remaining activity at 100 µM [11, 15]: 63%
remaining activity at 100 µM [12, 15]: 26%
remaining activity at 100 µM [13, 15]: 50%
remaining activity at 100 µM [14, 15]: 103%

O=C(Nc1nc2cc(O)ccc2s1)c1ccccn1 [Compound 03-13]
residual kinase activity, AMPK (hum) [1, 16]: 71
residual kinase activity, TrkA [2, 16]: 57
residual kinase activity, JAK2 [3, 16]: 98
residual kinase activity, Src [4, 16]: 70
residual kinase activity, HIPK2 [5, 16]: 43
residual kinase activity, CAMK1 [6, 16]: 111
residual kinase activity, PDK1 [7, 16]: 104
residual kinase activity, JNK2 [8, 16]: 103
residual kinase activity, LKB1 [9, 16]: 45
residual kinase activity, ERK1 [10, 16]: 97
residual kinase activity, STK33 [11, 16]: 71
residual kinase activity, S6K1 [12, 16]: 71
residual kinase activity, JNK3 [13, 16]: 67
residual kinase activity, JNK1 [14, 16]: 93

O=C(Nc1nc2ccc(O)cc2s1)c1ccccn1 [Compound 03-12]
residual kinase activity, AMPK (hum) [1, 16]: 90
residual kinase activity, TrkA [2, 16]: 49
residual kinase activity, JAK2 [3, 16]: 71
residual kinase activity, Src [4, 16]: 105
residual kinase activity, HIPK2 [5, 16]: 18
residual kinase activity, CAMK1 [6, 16]: 47
residual kinase activity, PDK1 [7, 16]: 88
residual kinase activity, JNK2 [8, 16]: 101
residual kinase activity, LKB1 [9, 16]: 64
residual kinase activity, ERK1 [10, 16]: 74
residual kinase activity, STK33 [11, 16]: 65
residual kinase activity, S6K1 [12, 16]: 50
residual kinase activity, JNK3 [13, 16]: 70
residual kinase activity, JNK1 [14, 16]: 105

O=C(Nc1nc2ccc(O)cc2s1)c1cccnc1 [Compound 08-44]
residual kinase activity, AMPK (hum) [1, 16]: 55
residual kinase activity, TrkA [2, 16]: 71
residual kinase activity, JAK2 [3, 16]: 30
residual kinase activity, Src [4, 16]: 72
residual kinase activity, HIPK2 [5, 16]: 19
residual kinase activity, CAMK1 [6, 16]: 42
residual kinase activity, PDK1 [7, 16]: 77
residual kinase activity, JNK2 [8, 16]: 90
residual kinase activity, LKB1 [9, 16]: 45
residual kinase activity, ERK1 [10, 16]: 81
residual kinase activity, STK33 [11, 16]: 57
residual kinase activity, S6K1 [12, 16]: 17
residual kinase activity, JNK3 [13, 16]: 64
residual kinase activity, JNK1 [14, 16]: 102

CC(=O)Nc1nc2cc(C(F)(F)F)ccc2s1 [Compound 03-73]
residual kinase activity, AMPK (hum) [1, 16]: 62
remaining activity at 100 µM [2, 16]: 74%
remaining activity at 100 µM [3, 16]: 96%
remaining activity at 100 µM [4, 16]: 74%
remaining activity at 100 µM [5, 16]: 51%
remaining activity at 100 µM [6, 16]: 89%
remaining activity at 100 µM [7, 16]: 105%
remaining activity at 100 µM [8, 16]: 111%
remaining activity at 100 µM [9, 16]: 98%
remaining activity at 100 µM [10, 16]: 83%
remaining activity at 100 µM [11, 16]: 86%
remaining activity at 100 µM [12, 16]: 77%
remaining activity at 100 µM [13, 16]: 83%
remaining activity at 100 µM [14, 16]: 120%

CC(=O)Nc1nc2ccccc2s1 [Compound 03-32]
residual kinase activity, AMPK (hum) [1, 16]: 86
residual kinase activity, TrkA [2, 16]: 77
residual kinase activity, JAK2 [3, 16]: 66
residual kinase activity, Src [4, 16]: 113
residual kinase activity, HIPK2 [5, 16]: 51
residual kinase activity, CAMK1 [6, 16]: 99
residual kinase activity, PDK1 [7, 16]: 96
residual kinase activity, JNK2 [8, 16]: 105
residual kinase activity, LKB1 [9, 16]: 97
residual kinase activity, ERK1 [10, 16]: 83
residual kinase activity, STK33 [11, 16]: 104
residual kinase activity, S6K1 [12, 16]: 92
residual kinase activity, JNK3 [13, 16]: 66
residual kinase activity, JNK1 [14, 16]: 97

CC(=O)Nc1nc2cc(F)ccc2s1 [Compound 03-77]
residual kinase activity, AMPK (hum) [1, 16]: 80
remaining activity at 100 µM [2, 16]: 59%
remaining activity at 100 µM [3, 16]: 57%
remaining activity at 100 µM [4, 16]: 80%
remaining activity at 100 µM [5, 16]: 22%
remaining activity at 100 µM [6, 16]: 106%
remaining activity at 100 µM [7, 16]: 91%
remaining activity at 100 µM [8, 16]: 99%
remaining activity at 100 µM [9, 16]: 85%
remaining activity at 100 µM [10, 16]: 90%
remaining activity at 100 µM [11, 16]: 70%
remaining activity at 100 µM [12, 16]: 48%
remaining activity at 100 µM [13, 16]: 68%
remaining activity at 100 µM [14, 16]: 80%

O=C(Nc1nc2cc(O)ccc2s1)c1cccnc1 [Compound 03-33]
residual kinase activity, AMPK (hum) [1, 16]: 87
residual kinase activity, TrkA [2, 16]: 51
residual kinase activity, JAK2 [3, 16]: 70
residual kinase activity, Src [4, 16]: 75
residual kinase activity, HIPK2 [5, 16]: 52
residual kinase activity, CAMK1 [6, 16]: 104
residual kinase activity, PDK1 [7, 16]: 100
residual kinase activity, JNK2 [8, 16]: 92
residual kinase activity, LKB1 [9, 16]: 83
residual kinase activity, ERK1 [10, 16]: 93
residual kinase activity, STK33 [11, 16]: 70
residual kinase activity, S6K1 [12, 16]: 75
residual kinase activity, JNK3 [13, 16]: 76
residual kinase activity, JNK1 [14, 16]: 111
